Results taken from ChEMBL document CHEMBL3046206, “Synthesis of new 4-(2,5-dimethylpyrrol-1-yl)/4-pyrrol-1-yl benzoic acid hydrazide analogs and some derived oxadiazole, triazole and pyrrole ring systems: a novel class of potential antibacterial, antifungal and antitubercular agents” (Med Chem Res, 2013).
Values after ≈ are worked out from the molar mass of the structure shown.

Key:
Format in all cases: functional
[1] = system: Candida tropicalis; assay: Antifungal activity against Candida tropicalis after 18 hr by broth microdilution technique
[2] = system: Enterococcus faecalis; assay: Antibacterial activity against Enterococcus faecalis after 18 hr by broth microdilution technique
[3] = system: Saccharomyces cerevisiae; assay: Antifungal activity against Saccharomyces cerevisiae after 18 hr by broth microdilution technique
[4] = system: Escherichia coli; assay: Antibacterial activity against Escherichia coli after 18 hr by broth microdilution technique
[5] = system: Klebsiella pneumoniae; assay: Antibacterial activity against Klebsiella pneumoniae after 18 hr by broth microdilution technique
[6] = system: Aspergillus niger; assay: Antifungal activity against Aspergillus niger after 18 hr by broth microdilution technique
[7] = system: Mycobacterium tuberculosis; assay: Antimycobacterial activity against Mycobacterium tuberculosis H37Rv after 21 days by broth dilution method; settings: 504 h
[8] = system: Staphylococcus aureus; assay: Antibacterial activity against Staphylococcus aureus after 18 hr by broth microdilution technique
[9] = system: Pseudomonas aeruginosa; assay: Antibacterial activity against Pseudomonas aeruginosa after 18 hr by broth microdilution technique
[10] = system: Bacillus subtilis; assay: Antibacterial activity against Bacillus subtilis after 18 hr by broth microdilution technique

| Structure (SMILES) | MIC [1] [µg/mL] | MIC [2] [µg/mL] | MIC [3] [µg/mL] | MIC [4] [µg/mL] | MIC [5] [µg/mL] | MIC [6] [µg/mL] | MIC [7] [µg/mL] | MIC [8] [µg/mL] | MIC [9] [µg/mL] | MIC [10] [µg/mL] |
| --- | --- | --- | --- | --- | --- | --- | --- | --- | --- | --- |
| Cc1ccc(C)n1-c1ccc(C(=O)N/N=C/c2ccc(O)cc2)cc1 | 16 (≈ 48 µM) | 16 (≈ 48 µM) | 16 (≈ 48 µM) | 500 (≈ 1500 µM) | 62.5 (≈ 187 µM) | 16 (≈ 48 µM) | 31.2 (≈ 93.7 µM) | 16 (≈ 48 µM) | 500 (≈ 1500 µM) | 31.2 (≈ 93.7 µM) |
| Cc1ccc(C)n1-c1ccc(C(=O)N/N=C/c2ccc(N(C)C)cc2)cc1 | 31.2 (≈ 86.7 µM) | 31.2 (≈ 86.7 µM) | 31.2 (≈ 86.7 µM) | 500 (≈ 1390 µM) | 62.5 (≈ 173 µM) | 31.2 (≈ 86.7 µM) | 31.2 (≈ 86.7 µM) | 31.2 (≈ 86.7 µM) | 500 (≈ 1390 µM) | 31.2 (≈ 86.7 µM) |
| C/C(=N/NC(=O)c1ccc(-n2c(C)ccc2C)cc1)c1ccccc1 | 62.5 (≈ 189 µM) | 31.2 (≈ 94.3 µM) | 62.5 (≈ 189 µM) | 500 (≈ 1510 µM) | 500 (≈ 1510 µM) | 62.5 (≈ 189 µM) | 31.2 (≈ 94.3 µM) | 62.5 (≈ 189 µM) | 500 (≈ 1510 µM) | 16 (≈ 48.3 µM) |
| Cc1ccc(C)n1-c1ccc(C(=O)NN=C(c2ccccc2)c2ccccc2)cc1 | 62.5 (≈ 159 µM) | 31.2 (≈ 79.4 µM) | 62.5 (≈ 159 µM) | 500 (≈ 1270 µM) | 500 (≈ 1270 µM) | 62.5 (≈ 159 µM) | 31.2 (≈ 79.4 µM) | 62.5 (≈ 159 µM) | 500 (≈ 1270 µM) | 31.2 (≈ 79.4 µM) |
| C/C(=N/NC(=O)c1ccc(-n2c(C)ccc2C)cc1)c1ccc(N)cc1 | 62.5 (≈ 180 µM) | 62.5 (≈ 180 µM) | 62.5 (≈ 180 µM) | 500 (≈ 1440 µM) | 500 (≈ 1440 µM) | 62.5 (≈ 180 µM) | 31.2 (≈ 90.2 µM) | 31.2 (≈ 90.2 µM) | 500 (≈ 1440 µM) | 62.5 (≈ 180 µM) |
| Cc1ccc(C)n1-c1ccc(C(=O)N/N=C/c2ccccc2)cc1 | 31.2 (≈ 98.5 µM) | 62.5 (≈ 197 µM) | 62.5 (≈ 197 µM) | 62.5 (≈ 197 µM) | 62.5 (≈ 197 µM) | 31.2 (≈ 98.5 µM) | 31.2 (≈ 98.5 µM) | 31.2 (≈ 98.5 µM) | 62.5 (≈ 197 µM) | 31.2 (≈ 98.5 µM) |
| Cc1ccc(C)n1-c1ccc(C(=O)N/N=C/c2ccccc2Cl)cc1 | 8 (≈ 22.7 µM) | 31.2 (≈ 88.8 µM) | 31.2 (≈ 88.8 µM) | 500 (≈ 1420 µM) | 62.5 (≈ 178 µM) | 16 (≈ 45.5 µM) | 16 (≈ 45.5 µM) | 16 (≈ 45.5 µM) | 500 (≈ 1420 µM) | 8 (≈ 22.7 µM) |
| Cc1ccc(C)n1-c1ccc(C(=O)N/N=C/c2ccc(Br)cc2)cc1 | 8 (≈ 20.2 µM) | 31.2 (≈ 78.9 µM) | 31.2 (≈ 78.9 µM) | 500 (≈ 1260 µM) | 500 (≈ 1260 µM) | 16 (≈ 40.4 µM) | 16 (≈ 40.4 µM) | 16 (≈ 40.4 µM) | > 500 | 16 (≈ 40.4 µM) |
| Cc1ccc(C)n1-c1ccc(C(=O)N/N=C/c2c(Cl)cccc2Cl)cc1 | 4 (≈ 10.4 µM) | 16 (≈ 41.4 µM) | 31.2 (≈ 80.9 µM) | 500 (≈ 1290 µM) | 500 (≈ 1290 µM) | 4 (≈ 10.4 µM) | 16 (≈ 41.4 µM) | 16 (≈ 41.4 µM) | 500 (≈ 1290 µM) | 16 (≈ 41.4 µM) |
| Cc1ccc(C)n1-c1ccc(C(=O)N/N=C/c2cccc([N+](=O)[O-])c2)cc1 | 16 (≈ 44.2 µM) | 31.2 (≈ 86.2 µM) | 31.2 (≈ 86.2 µM) | 500 (≈ 1380 µM) | 500 (≈ 1380 µM) | 16 (≈ 44.2 µM) | 62.5 (≈ 172 µM) | 31.2 (≈ 86.2 µM) | 500 (≈ 1380 µM) | 31.2 (≈ 86.2 µM) |
| Cc1ccc(C)n1-c1ccc(C(=O)N/N=C/c2ccccc2[N+](=O)[O-])cc1 | 16 (≈ 44.2 µM) | 31.2 (≈ 86.2 µM) | 31.2 (≈ 86.2 µM) | > 500 | > 500 | 16 (≈ 44.2 µM) | 62.5 (≈ 172 µM) | 62.5 (≈ 172 µM) | > 500 | 31.2 (≈ 86.2 µM) |
| O=C(O)c1cn(C2CC2)c2cc(N3CCNCC3)c(F)cc2c1=O [CIPROFLOXACIN] |  | < 5 |  | ≤ 1 | ≤ 1 |  |  | < 5 | > 5 | ≤ 1 |
| OC(Cn1cncn1)(Cn1cncn1)c1ccc(F)cc1F [FLUCONAZOLE] | ≤ 1 |  | ≤ 1 |  |  | ≤ 1 |  |  |  |  |
| CCn1cc(C(=O)O)c(=O)c2cc(F)c(N3CCNCC3)cc21 [NORFLOXACIN] |  | < 5 |  | ≤ 1 | ≤ 1 |  |  | < 5 | > 5 | ≤ 1 |
